Test results published in ChEMBL document CHEMBL1144213, “Synthesis and antiproliferative activity of unnatural enantiomers of 7-epi-goniofufurone and crassalactone C” (Bioorg Med Chem Lett, 2008).

Columns and labels:
[1] = system: MRC5; assay: Cytotoxicity against human MRC5 cells after 72 hrs by MTT assay; format: cell-based; conditions: MRC5, 72 h
[2] = system: HeLa; assay: Cytotoxicity against human HeLa cells after 72 hrs by MTT assay; format: functional, cell-based
[3] = system: Jurkat; assay: Cytotoxicity against human Jurkat cells after 72 hrs by MTT assay; format: functional, cell-based
[4] = system: HL-60; assay: Cytotoxicity against human HL-60 cells after 72 hrs by MTT assay; format: functional, cell-based; conditions: HL-60, 72 h
[5] = system: Raji; assay: Cytotoxicity against human Raji cells after 72 hrs by MTT assay; format: functional, cell-based

| Structure (SMILES) | IC50 [1] | IC50 [2] | IC50 [3] | IC50 [4] | IC50 [5] |
| --- | --- | --- | --- | --- | --- |
| O=C1C[C@H]2O[C@H]([C@@H](O)c3ccccc3)[C@H](O)[C@H]2O1 | > 100 µM | 0.89 µM | 18.6 µM | 22 µM | 1.25 µM |
| O=C1C[C@@H]2O[C@@H]([C@H](O)c3ccccc3)[C@@H](O)[C@@H]2O1 | > 100 µM | 4.38 µM | 0.05 µM | 13.9 µM | > 100 µM |
| O=C1C[C@@H]2O[C@@H]3[C@@H](O[C@H]3c3ccccc3)[C@@H]2O1 | > 100 µM | 0.97 µM | 28.4 µM | 0.025 µM | 0.45 µM |
| O=C(/C=C/c1ccccc1)O[C@H](c1ccccc1)[C@H]1O[C@@H]2CC(=O)O[C@@H]2[C@H]1O [(+)-CRASSALACTONE C] | > 100 µM | 11.2 µM | 25.4 µM | > 100 µM | 15.5 µM |
| O=C(/C=C/c1ccccc1)O[C@@H](c1ccccc1)[C@@H]1O[C@H]2CC(=O)O[C@H]2[C@@H]1O [CRASSALACTONE C (ENANTIOMERIC MIX)] | > 100 µM | 1.18 µM | 15.7 µM | 1.87 µM | 0.57 µM |
| COc1cccc2c1C(=O)c1c(O)c3c(c(O)c1C2=O)C[C@@](O)(C(=O)CO)C[C@@H]3O[C@H]1C[C@H](N)[C@H](O)[C@H](C)O1 [DOXORUBICIN] | – | – | 0.03 µM | 0.92 µM | – |
